US6750247B2, “Sponge-derived terpenoids and methods of use” (Galileo Laboratories, Inc., priority 2001, dated 2004)
Where a name gives a salt, the structure may show the parent alone.

Experiments:
neonatal cardiomyocytes = test: Myocyte calcium-contractility assay (cardiomyocyte beating anoxia assay); format: cell-based, rat; settings: 16 hr anoxia, 2 hr reoxygenation; for Percent Activity: at dose for max. activity, Fluo-4 fluorescence
Protocol: 10× Heart Dissection Solution (HDS) contains the following components (g/l) in tissue culture grade water: NaCl, 68; HEPES, 47.6; NaH2PO4, 2; Glucose, 10; KCl, 4; MgSO4, 1, pH adjusted to 7.4. Prior to filter sterilization of diluted (1× HDS) solution, 10 mg phenol red was added to each 500 milliliters of medium. Transferrin and Bovine Insulin were obtained from Life Technologies, and resuspended at a concentration of 4 mg/ml in tissue culture grade water. DMEM-F12- DMEM/F12, powder, 1:1 containing glutamine and pyridoxine hydrochloride was purchased from Life Technologies. To one liter equivalent of the powder was added 2.43 g of sodium bicarbonate and 10 ml of 100× Penicillin/Streptomycin in 950 ml of tissue culture grade water with stirring. The pH was adjusted to 7.2 with 1M HCl and volume was adjusted to 1 liter. The solution was filter sterilized then 2.5 ml of 4 mg/ml Transferrin, 250 μl 4 mg/ml Insulin and 30.7 mg of bromodeoxyuridine were added. DMEM-F12 was also prepared with 4% FBS for pre-coating the tissue culture plates and initial suspension of the cardiomyocyte pellet. Collagenase solution-49 mg of collagenase was resuspended in 120 ml 1× HDS.
Tissue culture plasticware was pre-coated with DMEM-F12-4% FBS by incubating 50 μl per well of a 96-well plate. Two-day old rat pups were removed from their mothers and placed in a sterile container. Pups were dipped quickly into 70% alcohol, then decapitated and the body was placed in an empty sterile tissue culture dish. An incision was made starting at the neck and progressing towards the belly, cutting through the sternum. The heart was removed and placed in a tissue culture dishes containing 1× HDS. The atria were trimmed, and the remaining ventricles were placed into a separate tissue culture dish containing 1× HDS, where they were sectioned into 3-4 pieces each. Ventricles were then transferred to a sterile 250 ml glass flask and the 1× HDS was removed. Twenty milliliters of pre-warmed collagenase solution were added to the ventricles, followed by incubation at 37° C. with shaking. After 30 minutes, the collagenase solution was removed and replaced with 20 ml fresh pre-warmed collagenase. Incubation was continued for an additional 20 minutes. At the end of the incubation, any tissue chunks were allowed to settle prior to removing the collagenase (containing the isolated cardiomyocytes) from the disrupted tissue pieces. The isolated myocytes were added to a 50 ml Falcon tube containing 2 ml Fetal Bovine Serum (FBS). The remaining tissue pieces were subjected to a second digestion by adding 20 ml fresh pre-warmed collagenase and incubating as above for 20 minutes. This second digest was then centrifuged at 1000 rpm for 10 minutes in a GH 3.8 A rotor in an Allegra 6 Centrifuge (Beckman Instruments, Fullerton, Calif.). The resulting supernatant was discarded, and the cell pellet was suspended with 4 ml FBS. The resulting cell suspension was placed in the incubator at 37° C. This step was repeated several additional times to harvest additional material.
Percoll gradients were prepared by adding 2.5 ml of 10× HDS to 22.5 ml of Percoll (Life Technologies) with mixing (Percoll Stock). Top Gradient solution (11 ml Percoll Stock and 14 ml 1× HDS) and Bottom Gradient solution (13 ml Percoll Stock and 7 ml 1× HDS) were prepared. Four milliliters of the Top Gradient solution were transferred into 6×15 ml sterile Falcon tubes. Three milliliters of the Bottom Gradient solution were placed in each tube by inserting a serological pipette to the bottom of the tube and slowly adding the liquid.
All the digests (5 in total) were pooled in one 50 ml Falcon tube and centrifuged on a tabletop Allegra 6 Centrifuge (Beckman Instruments, Fullerton, Calif.) using a GH 3.8 A rotor at 1000 rpm for 10 minutes. The supernatant was discarded, and the cell pellet was resuspended in 12 ml of 1× HDS. Two milliliters of the cell suspension was added to the top of each gradient. […]

[1] = biological target: T1, 15-human lipoxygenase (15-HLO) (Homo sapiens, UniProt P16050); test: 15-human lipoxygenase (15-HLO) inhibition assay; format: biochemical; settings: 3 μM linoleic acid, pH 7.5, approx. 22° C.
T1 construct: made in house
T1 sequence (P16050 1-662): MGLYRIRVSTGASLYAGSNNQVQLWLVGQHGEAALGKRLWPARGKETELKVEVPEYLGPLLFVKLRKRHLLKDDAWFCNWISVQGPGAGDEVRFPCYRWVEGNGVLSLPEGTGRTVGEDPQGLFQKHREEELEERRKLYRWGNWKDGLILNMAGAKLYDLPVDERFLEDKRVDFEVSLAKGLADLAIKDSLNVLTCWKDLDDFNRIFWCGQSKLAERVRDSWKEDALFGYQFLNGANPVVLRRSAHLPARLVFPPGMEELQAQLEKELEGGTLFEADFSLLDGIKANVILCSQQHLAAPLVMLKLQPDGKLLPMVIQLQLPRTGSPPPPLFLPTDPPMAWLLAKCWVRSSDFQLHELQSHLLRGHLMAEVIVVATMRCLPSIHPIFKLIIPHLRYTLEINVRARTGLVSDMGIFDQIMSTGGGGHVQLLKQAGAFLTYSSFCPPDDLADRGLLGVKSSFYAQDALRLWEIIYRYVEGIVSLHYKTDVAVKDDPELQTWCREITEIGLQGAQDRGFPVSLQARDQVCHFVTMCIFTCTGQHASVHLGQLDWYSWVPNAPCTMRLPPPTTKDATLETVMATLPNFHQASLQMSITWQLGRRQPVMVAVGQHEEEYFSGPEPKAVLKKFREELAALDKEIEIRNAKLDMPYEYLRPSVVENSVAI
Protocol: 15-human lipoxygenase (15-HLO) was expressed and purified as described by Holman et al., J. Am. Chem. Soc. […] 15-HLO enzyme activity was determined by direct measurement of the product formation of a 3 μM linoleic acid solution by monitoring the increase of absorbance at 234 nm in 25 mM Hepes (pH 7.5), 0.2% (g/L) cholic acid. All reactions were performed in 2 ml of buffer (approx. 200 nM 15-HLO) under constant stirring at approximately 22° C. IC50 values were determined by measuring the enzymatic rate at a variety of inhibitor concentrations (depending upon inhibitor potency) and plotting their corresponding values versus inhibitor concentration. The corresponding data was fit to a simple saturation curve and the inhibitor concentration at 50% activity was determined. The subject inhibitors used in the assay were dissolved in MeOH at a concentration of approximately 25 mg/ml.

[2] = tested on: primary hippocampal neuronal cells; test: Hippocampal anoxia-reoxygenation cell death assay; format: cell-based, mice; settings: for Percent Activity: at dose for max. activity, live neurons by Cell Tracker Green; for Percent Activity / Dose for Max. Activity: 5 hr hypoxia, 20-24 hr reoxygenation; for cell viability: compared to hypoxia-reoxygenated cells
Protocol: Neurobasal medium (Life Technologies, Rockville, Md.) with 1× B27 supplement (Life Technologies), […], 25 μM L-glutaxnic acid, and 1× Penicillin/Streptomycin was prepared fresh prior to use. Hank's Basic Salt Solution (HBSS, Ca/Mg-free) was prepared by preparing 1× Hanks CMF (Gibco) supplemented with HEPES (10 mM, pH 7.3), sodium bicarbonate (0.35%), 1× Penicillin/Streptomycin, and 1 mM pyruvate. Poly-D-lysine (Sigma, St. Louis, Mo.) was prepared by filtering a 50 μg/ml solution through 0.2 μm filter tubes. Sigmacote (Sigma, St. Louis, Mo.). Plastic Culture Flasks (T75 cm^2) or 12-well cell culture plates were then treated with Poly-D-Lysine (Sigma, St. Louis, Mo.).
Pregnant female mice (E18-E19) were euthanized with CO2 prior to removal of the uterus, which was then placed in a sterile plastic petri dish. The embryos were removed from the sac, and the embryonic brains removed and immersed in cold (4° C.) Hepes Buffered Salt Solution (HBSS; Ca/Mg free; Life Technologies) in a small petri dish. Hippocampi were then removed from the brains under a dissecting microscope and were placed on a paraffin-covered dish. The meninges were stripped away and the dissected hippocampi were collected in a small petri dish in HBSS. The hippocampi were transferred to a 15-ml centrifuge tube (normally 10-12 brains per tube) filled with HBSS. The tube containing the brains was centrifuged at 1000 rpm for 2 minutes in a GH 3.8 A rotor in an Allegra Centrifuge (Beckman Instruments, Fullerton, Calif.). The supernatant was removed, 2 ml of HBSS was added to the hippocampi in the tube, and the resulting suspension was triturated 2 times each with long-tipped siliconized glass pipettes having progressively smaller apertures, starting with a pipette with a standard size opening (approximately 1.0 mm diameter), following with one having an aperture of half standard size (approximately 0.5 mm diameter), then with one having an aperture about one-half that size (0.25 mm diameter). The suspension was then centrifuged again at 1000 rpm for 2 min in a tabletop centrifuge, the supernatant was discarded, and 2 ml of Neurobasal/B27i (with antibiotics) was added to the tube. The trituration procedure described above was then repeated on this suspension.
The density of cells was determined on a small aliquot of cells using standard counting procedures and correcting for cell viability by trypan blue stain exclusion. Using this procedure, the expected yield is 3×10^5-6×10^5 cells/brain. Cells were then added to PDL-coated 12 well plates, flasks or MetTek dishes in Neurobasal/B27I at a density of about 1.5×10^6 cells (T75 flask) or about 100,000 cells/well of a 12-well plate. Plated cells were incubated at 37° C. with 5% CO2 in air atmosphere. Media was renewed after 3-4 days by replacing half of it with fresh Neurobasal/B27m medium, containing 5 μM cytosine arabinoside (AraC). Seven to eight days from the initial culture, the media was renewed again, by removing one-half or it and replacing with an equal amount of fresh Neurobasal/B27m medium (without Ara-C).
This assay was used to induce ischemia by anoxia-reoxygenation in cultured hippocampal neuronal cells. Test compounds were added to assess potency and efficacy against ischemia-induced neuronal cell injury and cell death.
Neurobasal media, NoG neurobasal media, B27 supplement and B27 Supplement minus AO were obtained from Life Technologies. Neurobasal/B27 medium was prepared with 2× B27 minus AO supplement, 0.5 mM L-glutamine and 0.25× penicillin/streptomycin. Cell Tracker Green was obtained from Molecular Probes and a fresh 5 μM solution was prepared from 10 mM stock just before use. NoG-Neurobasal contains NoG neurobasal medium plus 0.5 mM glucose, 0.1 mM L-glutamine and 0.25× Penicillin/Streptomycin. Primary hippocampal neuronal cells were prepared according to the methods described above and were cultured in poly-D-lysine coated 12 well plates for 10-11 days prior to use. […]

CC(C)=CCC/C(C)=C/CCC1=CC(O)OC1=O (racemic) [Dictyodendrillin C (12), 3-(4,8-dimethyl-nona-3,7-dienyl)-5-hydroxy-5H-furan-2-one]
Dose for Max. Activity (neonatal cardiomyocytes): 100 µg/mL | cell viability (neonatal cardiomyocytes): increased cell viability | Percent Activity (neonatal cardiomyocytes): 46%

CCCCCCCC/C=C\CCCCCCCCOS(=O)(=O)O [oleyl sulfate, reference compound]
IC50 [1]: 400 nM

CC1CCC2C(=CCCC2(C)C)C1(C)CCC(CO)CCCc1ccoc1 (centres unmarked) [Halisulfate 7 alcohol (8), 5-furan-3-yl-2-[2-(1,2,5,5-tetramethyl-1,2,3,4,4a,5,6,7-octahydro-naphthalen-1-yl)-ethyl]-pentan-1-ol]
Percent Activity [2]: No activity at 10 μg/mL | Percent Activity (neonatal cardiomyocytes): No activity at 75 μg/mL

CC(C)=CCC/C(C)=C/CCC1=CC(=O)OC1O (racemic) [Dictyodendrillin B (11), 4-(4,8-dimethyl-nona-3,7-dienyl)-5-hydroxy-5H-furan-2-one]
Dose for Max. Activity [2]: 0.1 µg/mL | Percent Activity [2]: 56% | cell viability [2]: increased cell viability | Percent Activity (neonatal cardiomyocytes): No activity at 100 μg/mL

CC(C)=CCC[C@@]1(C)CCC[C@]2(C)[C@@H](Cc3cc(C(=O)O)ccc3O)C(C)=CC[C@@H]12 [(−)-jaspic acid (4), 4-hydroxy-3-[2,5,8a-trimethyl-5-(4-methyl-pent-3-enyl)-1,4,4a,5,6,7,8,8a-octahydro-naphthalen-1-ylmethyl]-benzoic acid]
Dose for Max. Activity [2]: 1 µg/mL | Percent Activity [2]: 63% | cell viability [2]: increased cell viability | Dose for Max. Activity (neonatal cardiomyocytes): 3 µg/mL | cell viability (neonatal cardiomyocytes): increased cell viability | Percent Activity (neonatal cardiomyocytes): 59%

CC(=O)O[C@@H]1OC=C2[C@@H](OC(C)=O)C[C@H]3[C@]4(C)CC[C@@H]5C([C@H](C)CCC5(C)C)[C@H]4C[C@@H](O)[C@]3(C)[C@H]21 (some centres unmarked) [Heteronemin (13), 24,25-epoxy-17(24)-scalarene-12-ol-16,25-diacetate]
Dose for Max. Activity [2]: 0.1 µg/mL | Percent Activity [2]: 21% | cell viability [2]: increased cell viability | Percent Activity (neonatal cardiomyocytes): No activity at 100 μg/mL
